PubChem BioAssay AID248 (DTP/NCI, 2004)
Several values for one entry are separate records, joined by “and”; a condition that tells them apart may be missing. Equal values may be shown once. Toxic doses and inconclusive results are not listed. No stated cut-off is given here; in the data, active means T/C of 150% or more; inactive means T/C below 125%.

Test system: L1210 leukemia ip in BDF1 mice, survival T/C
Test: NCI In Vivo Anticancer Drug Screen. Data for tumor model L1210 Leukemia (intraperitoneal) in B6D2F1 (BDF1) mice
Conditions: endpoint: mean survival time, higher = longer survival
Method in brief: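 Mice bearing the transplanted tumor received compound or vehicle. Survival of the treated group was divided by that of the vehicle-treated control group to give the ratio.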

[1] = dose: 25.0 mg/kg/injection, schedule: Q01DX009 (ip), vehicle: Klucel (hydroxypropylcellulose) (HPC)
[2] = dose: 25.0 mg/kg/injection, schedule: Q04DX002 (ip), vehicle: Klucel (hydroxypropylcellulose) (HPC)
[3] = dose: 50.0 mg/kg/injection, schedule: Q01DX009 (ip), vehicle: Klucel (hydroxypropylcellulose) (HPC)
[4] = dose: 50.0 mg/kg/injection, schedule: Q04DX002 (ip), vehicle: Klucel (hydroxypropylcellulose) (HPC)
[5] = dose: 100.0 mg/kg/injection, schedule: Q04DX002 (ip), vehicle: Klucel (hydroxypropylcellulose) (HPC)
[6] = dose: 100.0 mg/kg/injection, schedule: Q01DX001 (ip), vehicle: saline
[7] = dose: 200.0 mg/kg/injection, schedule: Q01DX001 (ip), vehicle: saline
[8] = dose: 400.0 mg/kg/injection, schedule: Q01DX001 (ip), vehicle: saline
[9] = dose: 100.0 mg/kg/injection, schedule: Q04DX003 (ip), vehicle: saline
[10] = dose: 100.0 mg/kg/injection, schedule: Q04DX003 (ip), vehicle: Klucel (hydroxypropylcellulose) (HPC)
[11] = dose: 200.0 mg/kg/injection, schedule: Q04DX002 (ip), vehicle: Klucel (hydroxypropylcellulose) (HPC)
[12] = dose: 400.0 mg/kg/injection, schedule: Q04DX002 (ip), vehicle: Klucel (hydroxypropylcellulose) (HPC)

Measured: T/C

O=C1C(N2CCCC2)=C(N2CC2)C(=O)C(N2CCCC2)=C1N1CC1
inactive: dose: 0.25 mg/kg/injection, schedule: Q01DX009 (ip), vehicle: saline 94 % of control and 119 % of control | dose: 0.39 mg/kg/injection, schedule: Q04DX003 (ip), vehicle: saline 108 % of control | dose: 0.5 mg/kg/injection, schedule: Q01DX009 (ip), vehicle: saline 101 % of control and 103 % of control | dose: 0.78 mg/kg/injection, schedule: Q04DX003 (ip), vehicle: saline 96 % of control | dose: 1.0 mg/kg/injection, schedule: Q01DX009 (ip), vehicle: saline 106 % of control and 118 % of control | dose: 1.56 mg/kg/injection, schedule: Q04DX003 (ip), vehicle: saline 115 % of control | dose: 2.0 mg/kg/injection, schedule: Q01DX001 (ip), vehicle: saline 108 % of control | dose: 2.0 mg/kg/injection, schedule: Q01DX009 (ip), vehicle: saline 121 % of control and 124 % of control | dose: 4.0 mg/kg/injection, schedule: Q01DX001 (ip), vehicle: saline 97 % of control | dose: 8.0 mg/kg/injection, schedule: Q01DX001 (ip), vehicle: saline 87 % of control | dose: 12.5 mg/kg/injection, schedule: Q04DX003 (ip), vehicle: saline 92 % of control

Cc1cc(C)c(NS(=O)(=O)c2ccccc2)c([N+](=O)[O-])c1
inactive: dose: 100.0 mg/kg/injection, schedule: Q04DX002 (ip), vehicle: saline with Tween-80 101 % of control | dose: 200.0 mg/kg/injection, schedule: Q04DX002 (ip), vehicle: saline with Tween-80 104 % of control | dose: 400.0 mg/kg/injection, schedule: Q04DX002 (ip), vehicle: saline with Tween-80 104 % of control

Cc1c[n+](CC(=O)c2ccccc2)cn1CC(=O)c1ccccc1
inactive: [1] 102 % of control and 105 % of control | [2] 95 % of control and 102 % of control | [3] 100 % of control and 116 % of control | [4] 95 % of control and 100 % of control | dose: 100.0 mg/kg/injection, schedule: Q01DX009 (ip), vehicle: Klucel (hydroxypropylcellulose) (HPC) 102 % of control and 108 % of control

O=S(=O)(Nc1cc(Cl)c(NS(=O)(=O)c2ccccc2)c2ccccc12)c1ccccc1
inactive: dose: 75.0 mg/kg/injection, schedule: Q01DX001 (ip), vehicle: Klucel (hydroxypropylcellulose) (HPC) 92 % of control | dose: 75.0 mg/kg/injection, schedule: Q01DX009 (ip), vehicle: Klucel (hydroxypropylcellulose) (HPC) 92 % of control | dose: 150.0 mg/kg/injection, schedule: Q01DX001 (ip), vehicle: Klucel (hydroxypropylcellulose) (HPC) 101 % of control | dose: 150.0 mg/kg/injection, schedule: Q01DX009 (ip), vehicle: Klucel (hydroxypropylcellulose) (HPC) 94 % of control | dose: 300.0 mg/kg/injection, schedule: Q01DX001 (ip), vehicle: Klucel (hydroxypropylcellulose) (HPC) 95 % of control

C[N+](C)(C)CC(O)COc1ccc(Cl)cc1Cl (stereo not given)
inactive: [2] 97 % of control | [4] 101 % of control | [5] 94 % of control and 89 % of control

O=C1CCc2cc([N+](=O)[O-])ccc2O1
inactive: dose: 50.0 mg/kg/injection, schedule: Q01DX001 (ip), vehicle: saline 103 % of control | [6] 92 % of control | [7] 94 % of control | [8] 103 % of control

CC1(C)OC2C(CNCCCl)OC(OCc3ccccc3)C2O1 (stereo not given)
inactive: dose: 50.0 mg/kg/injection, schedule: Q04DX003 (ip), vehicle: saline 96 % of control | [9] 96 % of control

CC(=O)OC1OC(C[Se][As](C)C)C(OC(C)=O)C(OC(C)=O)C1OC(C)=O (stereo not given)
inactive: [10] 104 % of control | dose: 200.0 mg/kg/injection, schedule: Q04DX003 (ip), vehicle: Klucel (hydroxypropylcellulose) (HPC) 98 % of control | dose: 400.0 mg/kg/injection, schedule: Q04DX003 (ip), vehicle: Klucel (hydroxypropylcellulose) (HPC) 95 % of control

Nc1nc(N2CCCCC2)c2nc(Cl)n(C3OC(CO)C(O)C3O)c2n1 (stereo not given)
inactive: [6] 96 % of control | [7] 94 % of control | [8] 97 % of control

Cc1ccc(C2C(C(=O)c3ccccc3)N2Cc2ccccc2)cc1 (stereo not given)
inactive: dose: 100.0 mg/kg/injection, schedule: Q01DX001 (ip), vehicle: Klucel (hydroxypropylcellulose) (HPC) 98 % of control | dose: 200.0 mg/kg/injection, schedule: Q01DX001 (ip), vehicle: Klucel (hydroxypropylcellulose) (HPC) 95 % of control

Nc1ncns1
inactive: dose: 66.0 mg/kg/injection, schedule: Q04DX003 (ip), vehicle: saline 104 % of control | [9] 117 % of control | dose: 150.0 mg/kg/injection, schedule: Q04DX003 (ip), vehicle: saline 120 % of control

CCOC(OCC)/C(C)=N\NC(N)=S
inactive: dose: 15.0 mg/kg/injection, schedule: Q01DX Z (ip), vehicle: carboxymethylcellulose (CMC) 98 % of control | dose: 30.0 mg/kg/injection, schedule: Q01DX Z (ip), vehicle: carboxymethylcellulose (CMC) 102 % of control | dose: 60.0 mg/kg/injection, schedule: Q01DX Z (ip), vehicle: carboxymethylcellulose (CMC) 96 % of control | dose: 120.0 mg/kg/injection, schedule: Q01DX Z (ip), vehicle: carboxymethylcellulose (CMC) 86 % of control | dose: 120.0 mg/kg/injection, schedule: Q01DX Z (oral), vehicle: carboxymethylcellulose (CMC) 95 % of control | dose: 240.0 mg/kg/injection, schedule: Q01DX Z (oral), vehicle: carboxymethylcellulose (CMC) 97 % of control | dose: 480.0 mg/kg/injection, schedule: Q01DX Z (oral), vehicle: carboxymethylcellulose (CMC) 94 % of control

CSc1ccccc1NC(=O)c1cccs1
inactive: [5] 89 % of control | [11] 96 % of control | [12] 93 % of control

O=C(O)c1ccccc1C(=O)Nc1ccccc1[N+](=O)[O-]
inactive: dose: 100.0 mg/kg/injection, schedule: Q01DX001 (ip), vehicle: saline with Tween-80 91 % of control | dose: 200.0 mg/kg/injection, schedule: Q01DX001 (ip), vehicle: saline with Tween-80 91 % of control | dose: 400.0 mg/kg/injection, schedule: Q01DX001 (ip), vehicle: saline with Tween-80 91 % of control

CCCCCCCN1CCC(C(=O)CC)(c2cccc(O)c2)CC1
inactive: dose: 12.5 mg/kg/injection, schedule: Q01DX009 (ip), vehicle: Klucel (hydroxypropylcellulose) (HPC) 106 % of control | [1] 98 % of control | [3] 93 % of control and 87 % of control | [5] 93 % of control

Cc1cc(C)c(-c2c(O)c(Br)c(C)c(O)c2Br)c(C)c1Br
inactive: dose: 75.0 mg/kg/injection, schedule: Q04DX003 (ip), vehicle: Klucel (hydroxypropylcellulose) (HPC) 97 % of control | dose: 150.0 mg/kg/injection, schedule: Q04DX003 (ip), vehicle: Klucel (hydroxypropylcellulose) (HPC) 97 % of control | dose: 300.0 mg/kg/injection, schedule: Q04DX003 (ip), vehicle: Klucel (hydroxypropylcellulose) (HPC) 92 % of control

Cc1ccc(Nc2ccc(C)cc2[N+](=O)[O-])cc1
inactive: dose: 100.0 mg/kg/injection, schedule: Q01DX001 (ip), vehicle: carboxymethylcellulose (CMC) 105 % of control | dose: 200.0 mg/kg/injection, schedule: Q01DX001 (ip), vehicle: carboxymethylcellulose (CMC) 102 % of control | dose: 400.0 mg/kg/injection, schedule: Q01DX001 (ip), vehicle: carboxymethylcellulose (CMC) 94 % of control

O=[N+]([O-])c1cccc(/C=N/N(c2ccccc2)C2CCS(=O)(=O)C2)c1 (stereo not given)
inactive: [5] 95 % of control | [11] 106 % of control | [12] 103 % of control

C=CCOC1C=CC=CC=C1
inactive: [1] 100 % of control | [3] 100 % of control | [10] 94 % of control

O=C(O)c1ccccc1NC(c1ccccc1)c1ccc2cccnc2c1O (stereo not given)
inactive: [6] 89 % of control | [7] 89 % of control
